Experimental findings from patent publication US9624491B2, “Methods and compositions for the detection and treatment of cancer involving miRNAs and miRNA inhibitors and targets” (Memorial Sloan Kettering Cancer Center, priority 2010, dated 2017) are described below.

In one data set the test system is FL5-12 cells. As to the kind of experiment: Cell cycle and cell death (viability) assays in FL5-12 cells. In kind it is cell-based, murine. Here is the method: FL5-12 murine lymphocytes, IL3 depletion studies and viral transductions were as described (Mavrakis, et al., 2008) (Plas, Talapatra, Edinger, Rathmell, & Thompson, 2001). Cell cycle and cell death assays based on uptake of DNA staining dye (LDS751) using Cell cycle and Viacount assays from Guava Technologies were performed as reported (Mavrakis, et al., 2008). The retroviral vectors are based on murine stem cell virus (MSCV) and include the miRNA expression vectors encoding miRs 17, 18a, 19b-1 (miR-19), 106a, 106b, 25 (He, et al., 2005), the vectors encoding Notch-ICN (a gift from W. Pear) (Pear, et al., 1996) and Bcl2 (Wendel, et al., 2004), the individual shRNA vectors (FIG. 17) and the library vector (MRP) (FIGS. 18a and b). miRNA inhibitor oligonucleotides (antagomirs) MZIP19a-PA-1, MZIP19b-PA-1, and scrambled control (MZIP000-PA-1) were from System Biosciences.

For another data set, the system named is NOTCH1-induced T-ALL. As to the kind of experiment: Mouse model of Notch-ICN (NOTCH1)-induced T-ALL, adoptive transfer of transduced HPCs. In kind it is in vivo. As to conditions: HPCs expressing NOTCH1-ICN plus miRNA or shRNA transplanted into irradiated recipients. Here is the method: Can miR-19 drive the development of lymphatic malignancies in vivo? Based on the miR-19 expression and translocation data, miR-19 was assessed in a mouse model of T-ALL (Pear, et al., 1996). Briefly, most cases of T-ALL carry mutations in the Notch1 gene, and, like the […] translocation, these generate the constitutively active intracellular domain of NOTCH1 (Notch-ICN) (Weng, et al., 2004). To test miR-19's ability to promote Notch-ICN-induced T-ALL in vivo, HPCs were adoptively transferred into irradiated recipients (FIG. 3d). […] At the same time, 80% of the mice receiving HPCs expressing only Notch-ICN remained disease free (p=0.0003) (FIG. 3e).
The mouse models of Notch1-induced T-ALL and the EμMyc lymphoma based on adoptive transfer of retrovirally transduced HPCs have been reported (Pear, et al., 1996), (Wendel, et al., 2004). Data were analyzed in Kaplan-Meier format using the log-rank (Mantel-Cox) test for statistical significance. The p53 loss of heterozygosity polymerase chain reaction (LOH PCR) and immunophenotyping by surface marker analysis were as described (Wendel, et al., 2004).
A murine model of NOTCH1-induced T-ALL was used to directly test the oncogenic potential of the most promising miRNAs in vivo. Briefly, HPCs were transduced with NOTCH1 together with either empty vector or an miRNA and transplanted into irradiated, syngeneic recipients. Animals were monitored for leukemia onset by regular blood counts (FIG. 22a). […] Typically, animals receiving HPCs transduced with these miRNAs develop an acute leukemia by 75 days, while >80% of vector controls or animals receiving miR-30 (n=5, p=0.15) remain disease free at this time (FIG. 22b). Based on the in vitro screen and prediction, additional miRNAs were tested. […] Thus, miR-19b, miR-20a, miR-26a, miR-223 and also the less abundant miR-27a and miR-148/152 behave as oncogenes in a murine T-ALL model.
The mouse T-ALL model has been reported (Pear, et al., 1996), (Wendel, et al., 2004). Data were analyzed in Kaplan-Meier format using the log-rank (Mantel-Cox) test for statistical significance. […]

The subject of data set [1] is Pten, Ppp2r5e, Prkaa1 and Bim mRNA. As to the kind of experiment: qRT-PCR of miR-19 target genes in FL5-12 cells. The class given is cell-based. As to conditions: FL5-12 cells and murine T-ALL samples. The source says: Total RNA and miRNA-enriched RNA were extracted from cells and tumor samples using Allprep DNA/RNA/Protein Kits (Qiagen) and miRNeasy Mini Kits (Qiagen), respectively. Pathological diagnosis was by expert hematopathologists at Weill Cornell Medical College. cDNA synthesis and qRT-PCR and analysis by the ΔΔ Ct method were as described (Mavrakis, et al., 2008). TaqMan Gene Expression Assays were used for Bcl2L11 (Mm00437796_m1), Dock5 (Mm00555757_m1), FoxO1 (Mm00490672_m1), FoxO3 (Mm01185722_m1), Ppp2r5e (Mm00803759_m1), Prkaa1 (Mm01296695_m1) and Pten (Mm01212532_m1). Mouse GAPD (GAPDH) (4352932) and miR-19b (000396) were from Applied Biosystems. Expression was normalized to RNU6B (001093, Applied Biosystems).
A general note: Quantitative PCR measures a nucleic acid by following its amplification.

Data set [2] deals with 3′UTR of Pten, Ppp2r5e, Prkaa1 and Bim. As to the kind of experiment: Reporter assay for 3′UTR repression by miR-19. In kind it is cell-based. As to conditions: wild type vs mutated miR-19 binding sites. The source says: FIG. 14. Reporter assay for 3′ untranslated region (3′UTR) repression by miR-19. The 3′UTR of the indicated genes was subcloned into a dual luciferase reporter construct (pSiCheck2) and inhibition of the 3′UTR by miR-19 is indicated as mean±SD ratio of Renila to Firefly luciferase activity (RLuc/Luc). WT indicates the wild type 3′UTR. M indicates the 3′UTR where the miR-19 binding site has been mutated. In the case of Pten, one site (M1) or both sites (M1+M2) were mutated [* indicates significant (p<0.05) changes; ** indicates non-significant (p>0.05) changes.]
The Dock5, Ppp2r5e, Prkaa1, and Bim 3′-UTR fragments were generated by PCR and cloned into the psi-CHECK-2 vector (Promega). The assays were performed as described (Xiao, et al., 2008). Binding site mutants were generated by site-directed mutagenesis.

As for “miR-19: miRNA of the 17˜92 cluster, UGUGCAAAUCCAUGCAAAACUGA (SEQ ID NO: 2); seed family in Table 3 (expressed or natural sequence; listed as Homo sapiens)”, the Viability in the data set on FL5-12 cells (FL5-12 cells withdrawn from IL3 for 48 h) is given as 82%±1.5%. Moreover, the S-phase fraction in the data set on FL5-12 cells (synchronized FL5-12 cells 24 h after release) is recorded as 24.5%±0.5. In addition, the “leukemia onset / leukemia-free survival” value in the data set on NOTCH1-induced T-ALL was “rapidly succumbed to T-ALL”; in the data set with NOTCH1-induced T-ALL (listed as miR-19b), “disease acceleration”. Further, the “reductions in the mRNA levels of Pten, Ppp2r5r, Prkaa1 and Bim” value in data set [1] is recorded as “up to 2 ×”. Moreover, the “3′UTR inhibition (RLuc/Luc)” value in data set [2] is on record as “direct 3′ untranslated region (UTR) inhibition via the miR-19 binding sites”.
